Measured values as given in patent publication US20200131196A1 (Mount Tam Therapeutics, Inc., priority 2017, published 2020).
Values joined by “and” are separate entries in the source; they are usually repeats but may differ in a detail not shown here. Equal entries are not always repeated. Where two headings read alike, the source gives them in different places.

What was measured:
[1] = Whole blood concentrations in mice after IP dosing (LC-MS/MS); format: in vivo, mouse; conditions: for Formula II Concentrations in Mouse Whole Blood, individual animals / Formula II Concentrations in Mouse Whole Blood, Mean: 10 mg/kg IP QD × 3 days; for Formula II Concentrations in Mouse Whole Blood, individual animals: animals 10, 11, 12; for approximate mean concentration in whole blood: up to six hours following administration
Description: Shown below are whole blood concentrations following administration of the compound of Formula II to mice. The compound of Formula II was administered to mice at 2 mg/kg or 10 mg/kg and the concentration of the compound in whole blood determined. These determinations were made using protein precipitation, liquid chromatography (LC), and mass spectrometry (MS/MS). Ten μl aliquots of whole blood and matrix calibration standards were distributed in a 96-well plate; 10 μl aliquots of blank matrix for matrix blanks and control blanks were included as controls. Ten μl of water was added to each sample followed by vortexing. One hundred sixty […] of internal standard was added to each sample except the matrix blanks; 160 μl 70:30 water:acetonitrile (ACN) was added to matrix blanks. This was followed by a […]. One hundred fifty μl of the resultant supernatant was then transferred to a new 96-well plate and the samples blown to dryness at 35° C. The resultant product was then reconstituted with 90 μl ACN.

[2] = at 30 days
Description: Tumor growth was monitored daily. […] Significance was set at p≤0.05.

TORC2 = biological target: T1, TORC2 (Homo sapiens, UniProt P42345+P62942); assay: TORC2 inhibition in PC3 cells (Western blot, phospho Akt (S473)); format: cell-based
T1 construct: endogenous in cells; host or cells: PC3 cells
Description: Equal amounts of protein were resolved by SDS-PAGE and transferred to nitrocellulose membrane using the Invitrogen Nu-Page system. […] The following day, blots were washed 3 times in TBST, incubated for 2 hr with secondary antibodies (donkey anti rabbit hrp conjugated), and finally washed an additional 3 times in TBST. ECL Prime (Amersham) was used to detect the proteins of interest and ImageJ was used to quantify blots.

T1 sequence (P62942 2-108 limits assumed, other chains not shown): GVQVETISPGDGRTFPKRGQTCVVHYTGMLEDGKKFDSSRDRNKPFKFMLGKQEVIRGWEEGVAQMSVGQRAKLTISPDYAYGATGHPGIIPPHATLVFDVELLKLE

Question: What does the source list for `CO[C@H]1C[C@@H]2CC[C@@H](C)[C@@](O)(O2)C(=O)C(=O)N2CCCC[C@H]2C(=O)O[C@H]([C@H](C)C[C@H]2C[C@H]3C[C@@H]2C[C@@H]3O)CC(=O)[C@H](C)/C=C(\C)[C@@H](O)[C@@H](OC)C(=O)[C@H](C)C[C@H](C)/C=C/C=C/C=C/1C` [Formula II, C37-[(1R,2S,4R,5S)-5-hyhroxybicyclo[2.2.1]heptane] rapamycin]?
Answer: Formula II Concentrations in Mouse Whole Blood, individual animals ([1]; Day 1, 1.00 hrs): 560 ng/mL and 641 ng/mL and 769 ng/mL; Formula II Concentrations in Mouse Whole Blood, Mean ([1]; Day 1, 2.00 hrs): 722 ng/mL; Formula II Concentrations in Mouse Whole Blood, individual animals ([1]; Day 1, 2.00 hrs): 793 ng/mL and 869 ng/mL and 503 ng/mL; Formula II Concentrations in Mouse Whole Blood, Mean ([1]; Day 1, 6.00 hrs): 1165 ng/mL; Formula II Concentrations in Mouse Whole Blood, individual animals ([1]; Day 1, 6.00 hrs): 1000 ng/mL and 1950 ng/mL and 544 ng/mL; Formula II Concentrations in Mouse Whole Blood, Mean ([1]; Day 1, 24.0 hrs): 204 ng/mL; Formula II Concentrations in Mouse Whole Blood, individual animals ([1]; Day 1, 24.0 hrs): 222 ng/mL and 181 ng/mL and 210 ng/mL; Formula II Concentrations in Mouse Whole Blood, Mean ([1]; Day 2, 1.00 hrs): 2309 ng/mL; Formula II Concentrations in Mouse Whole Blood, individual animals ([1]; Day 2, 1.00 hrs): 3410 ng/mL and 2970 ng/mL and 546 ng/mL; Formula II Concentrations in Mouse Whole Blood, Mean ([1]; Day 2, 2.00 hrs): 3323 ng/mL; Formula II Concentrations in Mouse Whole Blood, individual animals ([1]; Day 2, 2.00 hrs): 3670 ng/mL and 3930 ng/mL and 2370 ng/mL; Formula II Concentrations in Mouse Whole Blood, Mean ([1]; Day 2, 6.00 hrs): 2256 ng/mL; Formula II Concentrations in Mouse Whole Blood, individual animals ([1]; Day 2, 6.00 hrs): 2770 ng/mL and 3390 ng/mL and 609 ng/mL; Formula II Concentrations in Mouse Whole Blood, Mean ([1]; Day 2, 24.0 hrs): 179 ng/mL; Formula II Concentrations in Mouse Whole Blood, individual animals ([1]; Day 2, 24.0 hrs): 123 ng/mL and 336 ng/mL and 78.0 ng/mL; Formula II Concentrations in Mouse Whole Blood, Mean ([1]; Day 3, 1.00 hrs): 2204 ng/mL; Formula II Concentrations in Mouse Whole Blood, individual animals ([1]; Day 3, 1.00 hrs): AQL and 3420 ng/mL and 987 ng/mL; Formula II Concentrations in Mouse Whole Blood, Mean ([1]; Day 3, 2.00 hrs): 3199 ng/mL; Formula II Concentrations in Mouse Whole Blood, individual animals ([1]; Day 3, 2.00 hrs): 5170 ng/mL and 3650 ng/mL and 777 ng/mL; Formula II Concentrations in Mouse Whole Blood, Mean ([1]; Day 3, 6.00 hrs): 2317 ng/mL; Formula II Concentrations in Mouse Whole Blood, individual animals ([1]; Day 3, 6.00 hrs): 3330 ng/mL and 2890 ng/mL and 730 ng/mL; Formula II Concentrations in Mouse Whole Blood, Mean ([1]; Day 3, 24.0 hrs): 223 ng/mL; Formula II Concentrations in Mouse Whole Blood, individual animals ([1]; Day 3, 24.0 hrs): 223 ng/mL and 323 ng/mL and 124 ng/mL; approximate mean concentration in whole blood ([1]; about 2 mg/kg): 383 to 651 ng/mL; approximate mean concentration in whole blood ([1]; about 10 mg/kg): 657 to 3323 ng/mL; concentration at 24 h ([1]; mouse, whole blood, intraperitoneal, 2 mg/kg, 2 mg/kg IP QD × 3 days, Day 1, 24.0 hrs, animals 7, 8, 9, read-out: Formula II Concentrations in Mouse Whole Blood, individual animals): 12.2 ng/mL; concentration at 24 h ([1]; mouse, whole blood, intraperitoneal, 2 mg/kg, 2 mg/kg IP QD × 3 days, Day 1, 24.0 hrs, read-out: Formula II Concentrations in Mouse Whole Blood, Mean): 15.1 ng/mL; concentration at 1 h ([1]; mouse, whole blood, intraperitoneal, 2 mg/kg, 2 mg/kg IP QD × 3 days, Day 2, 1.00 hrs, read-out: Formula II Concentrations in Mouse Whole Blood, Mean): 404 ng/mL; concentration at 2 h ([1]; mouse, whole blood, intraperitoneal, 2 mg/kg, 2 mg/kg IP QD × 3 days, Day 2, 2.00 hrs, read-out: Formula II Concentrations in Mouse Whole Blood, Mean): 435 ng/mL; concentration at 6 h ([1]; mouse, whole blood, intraperitoneal, 2 mg/kg, 2 mg/kg IP QD × 3 days, Day 2, 6.00 hrs, animals 7, 8, 9, read-out: Formula II Concentrations in Mouse Whole Blood, individual animals): 553 ng/mL; concentration at 6 h ([1]; mouse, whole blood, intraperitoneal, 2 mg/kg, 2 mg/kg IP QD × 3 days, Day 2, 6.00 hrs, read-out: Formula II Concentrations in Mouse Whole Blood, Mean): 579 ng/mL; concentration at 24 h ([1]; mouse, whole blood, intraperitoneal, 2 mg/kg, 2 mg/kg IP QD × 3 days, Day 2, 24.0 hrs, read-out: Formula II Concentrations in Mouse Whole Blood, Mean): 43.7 ng/mL; concentration at 1 h ([1]; mouse, whole blood, intraperitoneal, 2 mg/kg, 2 mg/kg IP QD × 3 days, Day 3, 1.00 hrs, animals 7, 8, 9, read-out: Formula II Concentrations in Mouse Whole Blood, individual animals): 628 ng/mL; concentration at 24 h ([1]; mouse, whole blood, intraperitoneal, 2 mg/kg, about 2 mg/kg, at about 24 hours following administration, read-out: approximate mean concentration in whole blood): 15 to 43.7 ng/mL; concentration at 24 h ([1]; mouse, whole blood, intraperitoneal, 10 mg/kg, about 10 mg/kg, at about 24 hours following administration, read-out: approximate mean concentration in whole blood): 21 to 138 ng/mL; Percent Survival [2]: 100%; Percent Survival ([2]; listed as Formula I): 100%; IC50 (TORC2): 5 nM
